Holding throughout (type): cell-based
The subject of assay [1] is Septoria tritici. Kind of assay: Activity against leaf blotch on wheat caused by Septoria tritici (microtiter plate test). To be noted: 0.25 ppm; 7 days after inoculation, 405 nm.
The test system of assay [2] is Sclerotinia sclerotiorum. Kind of assay: Activity against stem rot on wheat caused by Sclerotinia sclerotiorum (microtiter plate test). To be noted: 7 days after inoculation, 405 nm.
Assay [3] relates to Pyricularia oryzae. As to conditions: 4 ppm; 7 days after inoculation, 405 nm.
Assay [4] relates to Botrytis cinerea. Put plainly: Activity against the grey mold Botrytis cinerea in the microtiterplate test. As to conditions: 7 days after inoculation, 405 nm.

For the compound `O=C(Nc1ccccc1-c1ccc(Cl)cc1)c1cccnc1Cl` [Boscalid, 2-chloro-N-(4'-chlorobiphenyl-2-yl)-nicotinamide], the Observed efficacy in assay [1] was determined as 40%.
With `Cc1cc(C)nc(Nc2ccccc2)n1` [Pyrimethanil, 4,6-dimethylpyrimidin-2-ylphenylamine], the Observed efficacy in assay [2] (1 ppm) is recorded as 20%; in assay [2] (4 ppm), 27%; in assay [2] (16 ppm) it was 49%; in assay [3], 37%; in assay [4] (1 ppm) it was 39%; in assay [4] (4 ppm), 60%.
